Measurements published in patent US9999690B2, “Labeled compounds and methods of imaging, diagnosing cartilage disorders and diseases, and monitoring cartilage health using labeled and unlabeled compounds” (Perosphere Inc., priority 2013, dated 2018).

Assay: physchem
Details: water

N=C(N)NCCCC(N)C(=O)NCCCN1CCN(CCCNC(=O)C(N)CCCNC(=N)N)CC1 (stereo not shown) [formula V, 2-Amino-5-guanidino-pentanoic acid (3-{4-[3-(2-amino-5-guanidino-pentanoylamino)-propyl]-piperazin-1-yl}-propyl)-amide]
solubility: > 100 mg/mL
